Test [1] concerns the target T1, human CaT1 (Homo sapiens, UniProt Q9H1D0, I526V).
T1 construct: expressed in transfected cells
T1 sequence (Q9H1D0 45-765 I526V): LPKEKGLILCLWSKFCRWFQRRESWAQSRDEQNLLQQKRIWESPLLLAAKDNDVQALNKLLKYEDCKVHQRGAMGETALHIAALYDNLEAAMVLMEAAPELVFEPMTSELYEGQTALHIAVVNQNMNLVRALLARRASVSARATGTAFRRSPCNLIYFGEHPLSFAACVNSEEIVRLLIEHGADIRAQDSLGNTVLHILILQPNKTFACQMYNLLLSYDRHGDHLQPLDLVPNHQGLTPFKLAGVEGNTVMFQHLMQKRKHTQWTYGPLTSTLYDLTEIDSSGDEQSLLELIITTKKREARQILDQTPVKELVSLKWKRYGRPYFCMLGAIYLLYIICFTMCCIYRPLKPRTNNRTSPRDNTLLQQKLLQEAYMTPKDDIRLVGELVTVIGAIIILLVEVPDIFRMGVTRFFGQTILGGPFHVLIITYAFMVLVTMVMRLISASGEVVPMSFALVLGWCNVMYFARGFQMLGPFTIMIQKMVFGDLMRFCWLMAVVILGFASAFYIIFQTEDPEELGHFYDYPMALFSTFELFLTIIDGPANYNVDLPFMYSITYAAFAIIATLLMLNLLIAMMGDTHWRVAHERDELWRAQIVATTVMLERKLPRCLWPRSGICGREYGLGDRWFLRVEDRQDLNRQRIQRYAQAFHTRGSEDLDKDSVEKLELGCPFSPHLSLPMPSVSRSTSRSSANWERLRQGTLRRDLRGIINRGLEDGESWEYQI
In words: 45Ca2+ uptake by human CaT1 constant expression cells (CHO cells transfected with pMEHis-CaT1). It counts as cell-based. The note with it: preincubated 4 hours; for amount of 45Ca2+ incorporated into the cells versus control: 3.0 mM, ANOVA, FIG. 28.

Test [2] addresses T1, human CaT1. The description is as above. In kind it is cell-based. The note with it: for amount of 45Ca2+ incorporated, influence of metal ions: versus control, FIG. 14. The protocol: That is, 1×10^5 cells/well of human CaT1 constant expression cells were cultured on a 24-well plate using a medium obtained by adding 10% FCS (fetal calf serum) was added to the above-mentioned DMEM/F12 medium at 37° C. for 5 days in a CO2 environment. After the medium was removed and the cells were washed with PBS buffer and HBSS buffer, to each well added was HBSS buffer containing 5.28 μM of ^45 Ca^2+, which was removed after a predetermined time (usually for 10 minutes excepting the case in which cultivation time is varied (time course is to be obtained)), the cells were solubilized with 1% triton (triton X-100), and then the cells were recovered. The amount of ^45Ca^2+ incorporated into the cells was measured using a liquid scintillation counter. As a control, CHO cells transfected with no human CaT1 gene were also subjected to the same operations to measure the amount of ^45Ca^2+ incorporated in the cells.
On the other hand, the effects of the metallic ion were examined by the same culture conditions and procedures as those in (4) except that 100 μM each of chloride salts La^3+, Gd^3+, Cd^2+, Co^2+, Fe^2+, Mn^2+, and Mg^2+ (10 mM for Mg2+ only) and 100 μM of choline chloride (Cho-Cl) were added to a HBSS buffer containing 5.28 μM of ^45Ca^2+.
In other words, in regards to a cultured human CaT1 constant expression cells evaluated by the same culture conditions and procedures as those in (4), a medium was displaced by a DMEM (—Ca) medium (Dulbecco's Modified Eagle Medium (cont.) Base Catalog No. 21068, manufactured by GIBCO™ Invitrogen Corporation: KCl 400.00 mg/l, NaCl 6400.00 mg/l, NaHCO3 3700.00 mg/l, NaH2PO4.H2O 125.00 mg/l, D-glucose 4500.00 mg/l, L-isoleucine 105.00 mg/l, L-leucine 105.00 mg/l, L-lysine.HCl 146.00 mg/l, L-tyrosin/2Na.2H2O 104.00mg/l) containing, as the food factor, 7% lactose (special grade reagents) 1% casein enzymatic degradation products, 1% guar gum hydrolysate, and soybean enzymatic degradation products (manufactured by Fuji oil Co., Ltd.), respectively, and the amount of ^45Ca^2+ incorporated into the cells was measured after preincubation for additional 4 hours.
The enzyme-treated sample obtained in (1) was dissolved in DMEM (—Ca) (the same as that used in Example 1(6)) so as to make a concentration of 1.0 (w/v)%. This was added to human CaT1 constant expression cells cultivated by the same culture conditions and the same procedures as those in Example 1(4) and CHO cells transfected with no human CaT1 gene, and these cells were preincubated for 4 hours. A medium contained 2.5% dialyzed (Spectra/POR MWCO:100) FCS and 2% L-glutamine solution.
Immediately after completion of the pretreatement, the amount of ^45Ca^2+ incorporated into the cells was measured by the same technique as used in Example 1(4). On the other hand, the same procedure was followed without addition of the enzyme-treated samples as a control.

Test [3] has as its target human calcium transporter 1 (human CaT1) (human) (UniProt Q9H1D0). In words: cell-based or functional assay.
[4] abbreviates: 100 μM chloride salt in HBSS buffer with 5.28 μM 45Ca2+.

For the compound `C[C@H](N)C(=O)O` [Ala], the “amount of 45Ca2+ incorporated into the cells versus control” value in test [1] was “no significant increase”. Consider `[Cl][Cd][Cl]` [Cd^2+], for which the “amount of 45Ca2+ incorporated, influence of metal ions” value (“amount … of metal ions” below) in test [2] (setting [4]) is “inhibit”. The same measure, in the same setting: next, `[Co+2]` [Co^2+]: “inhibit”.

Take `[Fe+2]` [Fe^2+]: the “amount … of metal ions” value in test [2] (setting [4]) is “no significant difference”.

Turning to `[Gd+3]` [Gd^3+], the “amount … of metal ions” value in test [2] (setting [4]) was “inhibit”. With `CC[C@H](C)[C@H](N)C(=O)O` [Ile], the “amount of 45Ca2+ incorporated into the cells versus control” value in test [1] is “no significant increase”.

Turning to `[La+3]` [La^3+], the “amount … of metal ions” value in test [2] (setting [4]) is given as “inhibit”.

As for `[Mg+2]` [Mg^2+], the “amount … of metal ions” value in test [2] (10 mM (Mg2+ only) in HBSS buffer with 5.28 μM 45Ca2+) is given as “no significant difference”. In the case of `[Mn+2]` [Mn^2+], in test [2] (setting [4]), the “amount … of metal ions” value is on record as “no significant difference”. Consider `O=C(O)[C@@H]1CCCN1` [Pro], for which, in test [1], the “amount of 45Ca2+ incorporated into the cells versus control” value is recorded as “no significant increase”. Take `OC[C@H]1O[C@@H](O[C@H]2[C@H](O)[C@@H](O)C(O)O[C@@H]2CO)[C@H](O)[C@@H](O)[C@H]1O` (some centres unmarked) [lactose]: in test [2] (7% in DMEM (-Ca) medium, preincubation 4 hours, FIG. 15), the “amount of 45Ca2+ incorporated into the cells, influence of food factor” value is recorded as “increased”. Consider “Ile-Pro-Ala (IPA) [synthetic peptide IPA]”, for which, in test [1] (0, 0.25, 0.5, 1.0 mg/ml, FIG. 27), the “amounts of 45Ca2+ incorporated into the cells, influence of concentration” value was “significantly increased depending on the concentration”. As to Ile-Pro-Ala [peak 1], in test [1] (0.5 mg/ml, ANOVA p<0.05 versus other peaks and control, FIG. 25), the “amount of 45Ca2+ incorporated into the cells, HPLC peaks” value is listed as “increased significantly”. Regarding Ile-Pro-Ile [IPI], the “amount of 45Ca2+ incorporated into the cells versus control” value in test [1] was “no significant increase”. Take “enzymatic degradation product of cheese whey (CWP-D)”: in test [3], the Km of Ca2+ uptake with CWP-D pretreatment (+CWP-D) is 19 µM; the Vmax of Ca2+ uptake with CWP-D pretreatment (+CWP-D) (pmol/mg/10 min) is 1.06; the amount of 45Ca2+ incorporated into human CaT1 constant expression cells (fold of control, 1.0 (w/v)% CWP-D, 4 h pretreatment) was determined as 8 times.

These data come from US20070037149A1, “Human calcium transporter 1 gene, screening method of calcium absorption regulating factor, and calcium absorption regulating factor” (priority 2003, published 2007).
